Experimental data as given in ChEMBL document CHEMBL1201862, “PubChem BioAssay data set” (2004).
Active and inactive are the calls of the source.

Assays:
[1] = Fluorescence-based cell-based high throughput dose response assay for inhibitors of the interaction of nucleotide-binding oligomerization domain containing 2 (NOD2) and the receptor-interacting serine-threonine kinase 2 (RIPK2).; type: functional, Homo sapiens
[2] = biological target: T1, Heat shock factor protein 1 (Mus musculus, UniProt P38532); experiment: decrease of HSF1-responsive luciferase luminescence – cell-based, NIH3T3, dose retest, confirmation (AID 2382); type: functional;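 further: NIH3T3 fibroblasts with HSF1-driven luciferase reporter stressed by proteasome inhibitor MG132; luminescence from HSF1-driven luciferase expression after 8 hours of MG132 stress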
T1 sequence (P38532 whole entry): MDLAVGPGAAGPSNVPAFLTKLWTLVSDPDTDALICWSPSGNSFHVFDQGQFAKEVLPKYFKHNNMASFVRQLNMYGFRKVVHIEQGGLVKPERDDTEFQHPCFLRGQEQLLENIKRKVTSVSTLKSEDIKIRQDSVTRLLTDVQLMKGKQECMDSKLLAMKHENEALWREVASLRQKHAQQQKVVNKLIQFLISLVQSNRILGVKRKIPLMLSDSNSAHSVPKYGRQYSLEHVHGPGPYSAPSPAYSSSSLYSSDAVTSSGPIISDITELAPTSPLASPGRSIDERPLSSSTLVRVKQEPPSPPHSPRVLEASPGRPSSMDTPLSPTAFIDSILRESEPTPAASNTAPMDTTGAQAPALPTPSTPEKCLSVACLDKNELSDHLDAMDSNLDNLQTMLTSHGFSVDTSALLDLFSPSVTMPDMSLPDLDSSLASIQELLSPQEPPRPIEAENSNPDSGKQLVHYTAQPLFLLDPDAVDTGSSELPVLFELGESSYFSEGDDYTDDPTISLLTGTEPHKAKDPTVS

[3] = Luminescence Cell-Based Dose Confirmation HTS to Identify Activators of 5'UTR Stem-Loop Driven Alpha-Synuclein mRNA Translation in H4 Neuroglioblastoma Cells. [Related pubchem assays: 1829 (Project Summary), 1814 (Primary HTS)]; type: functional
H4 = experiment: Luminescence Cell-Based Dose Response HTS to Identify Activators of 5'UTR Stem-Loop Driven Prion Protein mRNA Translation in H4 Neuroglioblastoma Cells. [Related pubchem assays: 1829 (Project Summary), 1814 (Primary HTS)]; type: functional; conditions: Homo sapiens
[4] = microbe, parasite or virus in culture; type: functional; conditions: Mycobacterium tuberculosis
Paired box protein Pax-8 = Paired box protein Pax-8 (Homo sapiens, UniProt Q06710); experiment: PAX8 transcriptional activity inhibition in RMG-I – RMG-I cells, luciferase, cherry-pick, dose response (AID 687027); type: functional, cell-based;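 further: luciferase reporter driven by Pax8 target thyroperoxidase promoter measured by SteadyGlo luminescence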
Sequence of Paired box protein Pax-8 (Q06710 whole entry): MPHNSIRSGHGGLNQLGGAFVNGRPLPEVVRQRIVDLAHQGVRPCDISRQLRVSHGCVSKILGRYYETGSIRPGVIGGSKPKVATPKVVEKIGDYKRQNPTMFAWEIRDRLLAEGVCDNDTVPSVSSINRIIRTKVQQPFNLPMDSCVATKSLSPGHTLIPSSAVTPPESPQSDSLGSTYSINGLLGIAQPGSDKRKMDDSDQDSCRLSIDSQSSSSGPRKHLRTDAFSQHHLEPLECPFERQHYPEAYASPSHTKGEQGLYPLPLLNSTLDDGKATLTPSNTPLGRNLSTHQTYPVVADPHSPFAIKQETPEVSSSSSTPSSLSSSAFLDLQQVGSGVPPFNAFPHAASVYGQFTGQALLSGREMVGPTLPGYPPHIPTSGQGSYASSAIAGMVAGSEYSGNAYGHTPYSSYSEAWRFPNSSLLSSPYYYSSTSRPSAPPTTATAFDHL

[5] = Luminescence Cell-Based Dose Response HTS to Identify Activators of Luciferase Translation or Activity in H4 […] Cells. [Related pubchem assays: 1829 (Project Summary), 1814 (Primary HTS)]; type: functional
[6] = biological target: T2, Histone-lysine N-methyltransferase NSD2 (Homo sapiens, UniProt O96028); type: biochemical
T2 sequence (O96028 whole entry): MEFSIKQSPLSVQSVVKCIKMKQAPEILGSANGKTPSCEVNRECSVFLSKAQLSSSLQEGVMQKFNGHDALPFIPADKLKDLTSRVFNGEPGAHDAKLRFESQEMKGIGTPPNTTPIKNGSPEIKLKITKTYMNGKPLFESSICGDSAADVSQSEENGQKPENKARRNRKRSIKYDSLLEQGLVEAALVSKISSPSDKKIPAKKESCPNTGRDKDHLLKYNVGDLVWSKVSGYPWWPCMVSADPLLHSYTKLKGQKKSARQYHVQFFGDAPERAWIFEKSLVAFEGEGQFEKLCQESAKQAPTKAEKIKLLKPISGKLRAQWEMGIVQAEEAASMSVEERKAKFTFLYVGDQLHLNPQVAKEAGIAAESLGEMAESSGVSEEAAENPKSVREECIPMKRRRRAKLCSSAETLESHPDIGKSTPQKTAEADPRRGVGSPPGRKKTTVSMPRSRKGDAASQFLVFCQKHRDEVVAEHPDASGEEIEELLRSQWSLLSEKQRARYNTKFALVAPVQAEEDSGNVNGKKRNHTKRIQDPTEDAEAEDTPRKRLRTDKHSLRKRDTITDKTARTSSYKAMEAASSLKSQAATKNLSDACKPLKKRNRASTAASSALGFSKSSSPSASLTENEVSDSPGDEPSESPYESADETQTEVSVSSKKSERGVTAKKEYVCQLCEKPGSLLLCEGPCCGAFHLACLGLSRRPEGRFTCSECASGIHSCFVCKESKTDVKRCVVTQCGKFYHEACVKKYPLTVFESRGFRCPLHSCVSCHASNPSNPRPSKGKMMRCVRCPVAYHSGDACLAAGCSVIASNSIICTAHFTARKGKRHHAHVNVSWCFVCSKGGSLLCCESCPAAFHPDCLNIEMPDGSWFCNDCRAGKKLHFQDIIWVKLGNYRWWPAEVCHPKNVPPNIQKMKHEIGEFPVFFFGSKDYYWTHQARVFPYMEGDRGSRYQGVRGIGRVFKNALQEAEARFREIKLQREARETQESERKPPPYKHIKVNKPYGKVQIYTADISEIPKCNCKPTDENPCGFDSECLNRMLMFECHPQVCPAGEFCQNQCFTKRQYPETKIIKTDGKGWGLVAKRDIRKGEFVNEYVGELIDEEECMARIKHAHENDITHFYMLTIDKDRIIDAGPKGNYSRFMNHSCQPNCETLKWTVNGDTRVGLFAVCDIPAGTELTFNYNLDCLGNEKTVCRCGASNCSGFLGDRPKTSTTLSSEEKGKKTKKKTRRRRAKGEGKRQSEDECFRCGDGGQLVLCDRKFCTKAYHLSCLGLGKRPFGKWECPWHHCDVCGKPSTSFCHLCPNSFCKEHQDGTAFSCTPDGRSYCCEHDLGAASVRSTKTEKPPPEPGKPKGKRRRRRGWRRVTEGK

[7] = biological target: T3, Microphthalmia-associated transcription factor (Homo sapiens, UniProt O75030); experiment: reducers of TRPM1 reporter luminescence, concentration series – cell-based, SK-MEL-5, cherry-picked, set 3, MITF inhibitor project, dose response (AID 493073); type: functional;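 further: SK-MEL-5 melanoma cells with luciferase driven by the MITF target TRPM1 promoter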
T3 sequence (O75030 whole entry): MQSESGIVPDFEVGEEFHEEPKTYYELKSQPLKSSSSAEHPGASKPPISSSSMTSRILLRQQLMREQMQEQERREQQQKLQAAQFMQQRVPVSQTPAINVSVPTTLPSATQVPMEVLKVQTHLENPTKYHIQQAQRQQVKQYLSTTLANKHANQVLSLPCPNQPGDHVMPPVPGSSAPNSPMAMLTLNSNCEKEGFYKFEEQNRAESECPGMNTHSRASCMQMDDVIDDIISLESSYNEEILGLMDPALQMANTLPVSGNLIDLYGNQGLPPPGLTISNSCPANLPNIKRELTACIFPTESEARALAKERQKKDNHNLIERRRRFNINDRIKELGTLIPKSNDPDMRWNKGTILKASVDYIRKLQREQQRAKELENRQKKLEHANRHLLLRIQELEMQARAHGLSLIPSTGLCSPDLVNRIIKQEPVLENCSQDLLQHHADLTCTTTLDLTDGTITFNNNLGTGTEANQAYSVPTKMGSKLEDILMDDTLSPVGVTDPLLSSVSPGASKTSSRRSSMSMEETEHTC

[8] = biological target: FAD-linked sulfhydryl oxidase ALR (Homo sapiens, UniProt P55789); experiment: ALR-catalysed DTT oxidation blockers – biochemical, H2O2 detection, luminescence, cherry-pick, dose response (AID 493248)
Sequence of FAD-linked sulfhydryl oxidase ALR (P55789 whole entry): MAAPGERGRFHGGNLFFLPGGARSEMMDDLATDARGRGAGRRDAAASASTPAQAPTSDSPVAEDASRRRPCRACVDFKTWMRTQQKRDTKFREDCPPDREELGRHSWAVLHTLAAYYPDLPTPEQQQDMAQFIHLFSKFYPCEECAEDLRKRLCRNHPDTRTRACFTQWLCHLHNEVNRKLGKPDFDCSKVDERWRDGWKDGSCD

A-375 = experiment: proliferation inhibition in MITF-low A375 cells – cell-based, cherry-pick samples, set 2, counter-screen for MITF modulator project, dose response (AID 540335); type: functional; conditions: Homo sapiens
[9] = THP-1 cell cytotoxicity, dose response, cytotoxicity control for non-replicating M. tuberculosis project (AID 489025); type: functional
cells = type: functional
[10] = Luminescence Cell-Based Dose Retest to Confirm Inhibitors of Cancer Stem Cells. [Related pubchem assays (depositor defined):AID2717, AID2721]; type: functional; conditions: Homo sapiens
[11] = biological target: Dual specificity protein kinase CLK1 (Homo sapiens, UniProt P49759); experiment: inhibition of human CLK1 activity – biochemical, cherry-picked samples, selectivity assay for Dyrk1A inhibitor project, dose response (AID 588811)
Sequence of Dual specificity protein kinase CLK1 (P49759 whole entry): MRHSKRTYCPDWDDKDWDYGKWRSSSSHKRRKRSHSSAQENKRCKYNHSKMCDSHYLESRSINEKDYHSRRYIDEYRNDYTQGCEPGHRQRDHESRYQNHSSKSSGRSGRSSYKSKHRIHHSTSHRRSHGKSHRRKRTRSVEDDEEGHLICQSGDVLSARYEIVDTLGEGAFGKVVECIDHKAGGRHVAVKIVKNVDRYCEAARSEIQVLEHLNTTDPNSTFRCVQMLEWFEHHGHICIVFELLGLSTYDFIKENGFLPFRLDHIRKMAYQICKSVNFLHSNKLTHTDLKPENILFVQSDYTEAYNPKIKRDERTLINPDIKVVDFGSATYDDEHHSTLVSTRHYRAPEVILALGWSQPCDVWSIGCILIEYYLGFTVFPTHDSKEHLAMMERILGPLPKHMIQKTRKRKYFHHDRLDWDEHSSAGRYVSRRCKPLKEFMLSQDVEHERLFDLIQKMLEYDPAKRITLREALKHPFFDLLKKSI

[12] = biological target: T4, Corticotropin-releasing factor receptor 2/Corticotropin-releasing factor-binding protein (Homo sapiens, UniProt P24387+Q13324); experiment: Dose Response confirmation of uHTS hits for small molecule antagonists of the CRF-binding protein and CRF-R2 receptor complex.; type: functional; conditions: read-out: IC50_Mean
T4 sequence (Q13324 whole entry): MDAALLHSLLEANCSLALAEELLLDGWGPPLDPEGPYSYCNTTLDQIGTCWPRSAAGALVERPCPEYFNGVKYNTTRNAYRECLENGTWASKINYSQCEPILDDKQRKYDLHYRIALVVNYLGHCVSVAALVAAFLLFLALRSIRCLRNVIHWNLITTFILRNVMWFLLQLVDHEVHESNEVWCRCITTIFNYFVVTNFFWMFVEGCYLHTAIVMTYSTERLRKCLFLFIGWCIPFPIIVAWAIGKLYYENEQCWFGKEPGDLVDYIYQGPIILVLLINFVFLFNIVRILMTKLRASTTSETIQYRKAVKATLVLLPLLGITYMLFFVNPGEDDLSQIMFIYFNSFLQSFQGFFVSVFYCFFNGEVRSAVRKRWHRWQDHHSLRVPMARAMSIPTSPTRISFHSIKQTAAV
T4 sequence (P24387 whole entry): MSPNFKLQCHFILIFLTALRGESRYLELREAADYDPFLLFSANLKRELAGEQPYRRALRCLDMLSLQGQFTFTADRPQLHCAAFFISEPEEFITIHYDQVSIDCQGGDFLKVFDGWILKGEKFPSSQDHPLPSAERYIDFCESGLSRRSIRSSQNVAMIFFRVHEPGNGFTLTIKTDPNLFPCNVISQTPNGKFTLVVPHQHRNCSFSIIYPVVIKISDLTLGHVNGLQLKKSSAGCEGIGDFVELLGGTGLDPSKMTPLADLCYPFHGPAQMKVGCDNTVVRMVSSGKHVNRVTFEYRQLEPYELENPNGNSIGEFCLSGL

[13] = blockers of CRF-binding protein–CRF-R2 complex – cell-based, uHTS hits, 384-well, dose response (AID 651639); type: functional, Homo sapiens; conditions: read-out: IC50_Mean
[14] = biological target: T4, Corticotropin-releasing factor receptor 2/Corticotropin-releasing factor-binding protein; experiment: activators of CRF receptor 2 with binding protein – uHTS hits, confirmation (AID 602473); type: functional; conditions: read-out: EC50_Mean
[15] = biological target: T5, Adenosylmethionine-8-amino-7-oxononanoate aminotransferase (Mycobacterium tuberculosis, UniProt P9WQ81); experiment: Mycobacterium tuberculosis BioA enzyme inhibitor Measured in Biochemical System Using Plate Reader - 2163-02_Inhibitor_Dose_CherryPick_Activity.; type: functional, Mycobacterium tuberculosis UT205
T5 sequence (P9WQ81 whole entry): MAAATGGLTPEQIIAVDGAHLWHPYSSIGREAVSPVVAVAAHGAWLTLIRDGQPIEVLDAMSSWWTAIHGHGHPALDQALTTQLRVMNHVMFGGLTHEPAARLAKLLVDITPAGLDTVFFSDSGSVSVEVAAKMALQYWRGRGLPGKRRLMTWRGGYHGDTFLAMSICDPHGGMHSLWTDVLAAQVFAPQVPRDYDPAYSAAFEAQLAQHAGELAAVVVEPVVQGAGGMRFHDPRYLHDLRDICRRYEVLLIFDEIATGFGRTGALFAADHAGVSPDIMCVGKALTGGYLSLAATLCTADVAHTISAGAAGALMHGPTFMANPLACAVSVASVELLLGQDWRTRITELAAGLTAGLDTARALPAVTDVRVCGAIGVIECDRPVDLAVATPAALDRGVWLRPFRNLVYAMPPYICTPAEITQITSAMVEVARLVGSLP

[16] = biological target: Ras and Rab interactor 1/Tyrosine-protein kinase ABL1 (Homo sapiens, UniProt P00519+Q13671); type: functional;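 further: biochemical TR-FRET dose-response test measuring inhibition of binding between Rin1 and Abl proteins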
Sequence of Ras and Rab interactor 1/Tyrosine-protein kinase ABL1 (P00519 whole entry): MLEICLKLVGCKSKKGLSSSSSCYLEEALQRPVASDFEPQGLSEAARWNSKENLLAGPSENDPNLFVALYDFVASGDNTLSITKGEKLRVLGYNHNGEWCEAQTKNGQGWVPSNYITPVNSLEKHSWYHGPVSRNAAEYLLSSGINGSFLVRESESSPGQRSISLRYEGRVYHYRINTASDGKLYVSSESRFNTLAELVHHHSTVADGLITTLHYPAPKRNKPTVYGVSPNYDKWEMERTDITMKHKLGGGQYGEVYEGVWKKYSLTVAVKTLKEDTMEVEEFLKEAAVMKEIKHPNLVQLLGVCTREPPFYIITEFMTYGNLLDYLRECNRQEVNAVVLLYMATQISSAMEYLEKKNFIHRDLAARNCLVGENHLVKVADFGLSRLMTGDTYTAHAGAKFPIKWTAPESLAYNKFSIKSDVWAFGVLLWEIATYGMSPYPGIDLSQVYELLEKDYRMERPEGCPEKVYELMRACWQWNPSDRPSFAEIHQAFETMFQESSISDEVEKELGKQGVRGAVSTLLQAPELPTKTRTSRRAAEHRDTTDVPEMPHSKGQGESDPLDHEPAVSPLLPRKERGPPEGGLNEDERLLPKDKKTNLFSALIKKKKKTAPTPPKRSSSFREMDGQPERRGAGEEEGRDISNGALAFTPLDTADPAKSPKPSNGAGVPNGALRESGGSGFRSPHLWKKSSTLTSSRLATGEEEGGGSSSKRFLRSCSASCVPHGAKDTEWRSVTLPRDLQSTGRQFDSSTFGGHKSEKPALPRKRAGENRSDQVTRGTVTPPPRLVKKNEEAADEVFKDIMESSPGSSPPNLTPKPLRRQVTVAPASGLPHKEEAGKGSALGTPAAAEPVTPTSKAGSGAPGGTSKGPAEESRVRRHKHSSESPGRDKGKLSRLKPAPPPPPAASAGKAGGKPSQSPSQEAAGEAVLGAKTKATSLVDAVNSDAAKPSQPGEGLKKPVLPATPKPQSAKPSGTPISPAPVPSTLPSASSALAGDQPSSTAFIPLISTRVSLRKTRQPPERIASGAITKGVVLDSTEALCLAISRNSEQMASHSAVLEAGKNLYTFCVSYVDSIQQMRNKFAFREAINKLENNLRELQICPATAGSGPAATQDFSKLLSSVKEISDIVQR
Sequence of Ras and Rab interactor 1/Tyrosine-protein kinase ABL1 (Q13671 whole entry): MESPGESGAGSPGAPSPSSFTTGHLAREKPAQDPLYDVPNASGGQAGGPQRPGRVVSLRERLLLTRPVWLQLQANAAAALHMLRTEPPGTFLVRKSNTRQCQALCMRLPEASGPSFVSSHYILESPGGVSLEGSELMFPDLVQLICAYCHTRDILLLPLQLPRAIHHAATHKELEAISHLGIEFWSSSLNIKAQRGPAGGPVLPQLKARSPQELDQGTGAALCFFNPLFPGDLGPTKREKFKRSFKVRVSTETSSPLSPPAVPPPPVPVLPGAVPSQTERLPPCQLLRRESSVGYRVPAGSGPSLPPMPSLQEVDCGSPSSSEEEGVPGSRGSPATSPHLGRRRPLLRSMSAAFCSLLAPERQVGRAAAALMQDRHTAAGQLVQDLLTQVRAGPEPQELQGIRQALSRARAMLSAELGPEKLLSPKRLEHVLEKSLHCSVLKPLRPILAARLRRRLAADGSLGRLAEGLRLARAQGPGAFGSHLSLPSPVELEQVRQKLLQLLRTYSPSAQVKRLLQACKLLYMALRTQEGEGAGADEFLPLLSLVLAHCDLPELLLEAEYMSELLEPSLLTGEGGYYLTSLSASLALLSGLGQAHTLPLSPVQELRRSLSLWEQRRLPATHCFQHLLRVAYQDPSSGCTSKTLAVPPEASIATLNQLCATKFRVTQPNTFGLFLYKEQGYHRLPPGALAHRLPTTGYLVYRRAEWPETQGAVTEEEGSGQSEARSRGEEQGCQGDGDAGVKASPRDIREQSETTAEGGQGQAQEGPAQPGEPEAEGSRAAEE

## COc1nn(-c2ccccc2)c(=O)c(Cl)c1Cl
[1]; Homo sapiens
  IC50: 4.58 µM (active)
[2]
  EC50: 9.89 µM (active)
[3]
  EC50: > 120 µM (not active)
H4
  EC50: > 120 µM (not active)
[4]
  CC50: 8.79 µM (active)
Paired box protein Pax-8
  AC50: 6.72 µM (active)
[5]
  EC50: > 120 µM (not active)

## CCc1ccc(N2C(=O)NC(=O)/C(=C\C=C\c3ccco3)C2=O)cc1
[6]
  AC50: > 20 µM (inactive)
[7]
  AC50: 7.53 µM (active)
[8]
  AC50: 4.24 µM (active)
A-375
  AC50: 21.6 µM (active)
[9]
  CC50: > 40 µM (active)
cells
  IC50: 19.6 µM (active)
[10]
  AC50: 1.96 µM (active)

## CCOC(=O)c1ccc(-c2ccc3ncnc(N(C)Cc4sccc4C)c3c2)o1
[11]
  AC50: 1.47 µM (active)

## O=C(Nc1cc(-c2ccccc2)sc1C(=O)O)c1cccc(F)c1
[12]
  IC50: 23.5 µM (active)
[13]
  IC50: 14.2 µM (active)
[14]
  EC50: > 53 µM (inactive)

## Cc1occc1CNc1ncnc2ccc(-c3ccc4c(c3)OCO4)cc12
[11]
  AC50: 0.0118 µM (active)

## Cc1ccccc1-n1c(SCC(=O)N(C)C2CCS(=O)(=O)C2)nc2ccccc2c1=O (centres undefined)
[15]
  AC50: 2.39 µM (active)

## COc1ccc(Cl)cc1NC(=O)C(C)NC(c1ccccc1)c1ccccc1 (centres undefined)
[12]
  IC50: 1.14 µM (active)
[13]
  IC50: > 20 µM (inactive)
[14]
  EC50: > 53 µM (inactive)

## CC1=CC2OC3CC4OC(=O)C=CC=CC(C(C)O)OCC(O)C(C)CC(=O)OCC2(CC1O)C4(C)C31CO1 (centres undefined)
[1]
  IC50: 49.8 µM (inactive)

## COc1ccc(Cc2c(-c3ccc(OC)c(OC)c3)nc3ccc(C)cn23)c(C)c1
[15]
  AC50: 2.73 µM (active)

## COC(=O)c1ccc(CSc2nnc(-c3ccccc3)n2C)o1
[16]
  IC50: 14.1 µM (inactive)

## Clc1ccc(CNc2ccnc(-c3ccc4[nH]ncc4c3)n2)cc1Cl
[11]
  AC50: 0.00784 µM (active)

## CCCOc1ccc(/C=C/C(=O)N2CCN(C(=O)c3ccco3)CC2)cc1OC
[16]
  IC50: > 73.5 µM (inactive)

## COC(=O)C[C@H]1CC[C@@H]2[C@H](COC[C@@H](O)CN2C(=O)Nc2cccc(F)c2)O1
[15]
  AC50: 13.7 µM (active)
